In paper PMC9668928, “Zandelisib (ME-401) in Japanese patients with relapsed or refractory indolent non-Hodgkin’s lymphoma: an open-label, multicenter, dose-escalation phase 1 study” (International Journal of Hematology, 2022):

System: Japanese patients with R/R iNHL
Experiment: Phase 1 dose-escalation study: safety and tolerability (TEAEs, DLTs)
Assay type: in vivo
Description: Japanese patients aged ≥ 20 years with R/R iNHL histologically confirmed as FL, nodal MZL, extra-nodal MZL of mucosa-associated lymphoid tissue, small lymphocytic lymphoma, lymphoplasmacytic lymphoma, Waldenström’s macroglobulinemia, or equivalent, according to World Health Organization classification, were eligible for this study. Other key eligibility criteria included being PI3K inhibitor therapy-naïve and an Eastern Cooperative Oncology Group performance status of 0 or 1. Further details of inclusion and exclusion criteria are provided in Supplementary Table 1.
This was a multicenter, open-label, dose-escalation, phase 1 study in Japan. All patients received oral zandelisib once daily at the same time each day, at least 1 h before or 2 h after a meal (CS: continuous schedule). Each treatment cycle was 28 days. Definitions of the DLTs described in this study can be found in Supplementary Table 2. The observation period for DLTs was from day 1 of Cycle 1 to day 1 of Cycle 2. Zandelisib was administered until disease progression or unacceptable toxicity. In the event of an AE, patients could be switched to IDT. In the case of disease progression while receiving IDT, patients could be switched back to CS per the investigator’s discretion.
A starting dose of 45 mg was set for investigating patient safety. This study adopted a standard 3 + 3 design. […] If DLTs occurred in 2 or more patients, the study was planned to be suspended pending a safety evaluation. If a DLT occurred in 1 patient, 3 further patients were added to cohort 1. If DLTs occurred in 0/3 or 1/6 patients in cohort 1, dosing in cohort 2 commenced (n = 6; 60 mg/day). If the incidence of DLTs in cohort 2 was ≤ 1/6, the maximum tolerated dose was not determined, and the dose in cohort 2 was to be selected as the recommended Japanese phase 2 dose.
The primary endpoint was the safety [number of patients with treatment-emergent adverse events (TEAEs), based on Common Terminology Criteria for Adverse Events version 5.0] and tolerability (including laboratory values, vital signs, and electrocardiogram performance) of zandelisib in Japanese patients. Hepatobiliary disorder, aspartate/alanine (AST/ALT) increased, diarrhea/colitis, organizing pneumonia, stomatitis, or rash were defined as irAEs in this manuscript. Secondary endpoints included PK (plasma concentrations and PK parameters) and the efficacy of zandelisib. […] The PK parameters for Cycle 1 day 1 and Cycle 2 day 1 were calculated for each patient by non-compartmental analysis. PK parameters included maximum plasma drug concentration (Cmax), area under the plasma concentration–time curve (AUC) from time zero to the last measurable point (AUC0–t), the AUC from time zero to infinity (AUC0-inf), and terminal half-life (t1/2).

CN1CCC(c2ccccc2CC(C)(C)Nc2nc(N3CCOCC3)nc(-n3c(C(F)F)nc4ccccc43)n2)CC1 [zandelisib]
TEAE Oropharyngeal pain, Grade ≥ 3 (45 mg, n = 3): 0 n (%)
TEAE Pancreatitis, All grades (45 mg, n = 3): 1 (33.3) n (%)
TEAE Pancreatitis, Grade ≥ 3 (45 mg, n = 3): 1 (33.3) n (%)
TEAE Pharyngeal paresthesia, All grades (45 mg, n = 3): 0 n (%)
TEAE Pharyngeal paresthesia, Grade ≥ 3 (45 mg, n = 3): 0 n (%)
TEAE Pruritus, All grades (45 mg, n = 3): 0 n (%)
TEAE Pruritus, Grade ≥ 3 (45 mg, n = 3): 0 n (%)
TEAE Psychiatric disorders (SOC), All grades (45 mg, n = 3): 1 (33.3) n (%)
TEAE Psychiatric disorders (SOC), Grade ≥ 3 (45 mg, n = 3): 0 n (%)
TEAE Rash maculopapular, All grades (45 mg, n = 3): 1 (33.3) n (%)
TEAE Rash maculopapular, Grade ≥ 3 (45 mg, n = 3): 0 n (%)
TEAE Rash, All grades (45 mg, n = 3): 1 (33.3) n (%)
TEAE Rash, Grade ≥ 3 (45 mg, n = 3): 0 n (%)
TEAE Renal and urinary disorders (SOC), All grades (45 mg, n = 3): 1 (33.3) n (%)
TEAE Renal and urinary disorders (SOC), Grade ≥ 3 (45 mg, n = 3): 0 n (%)
TEAE Renal impairment, All grades (45 mg, n = 3): 1 (33.3) n (%)
TEAE Renal impairment, Grade ≥ 3 (45 mg, n = 3): 0 n (%)
TEAE Respiratory, thoracic, and mediastinal disorders (SOC), All grades (45 mg, n = 3): 1 (33.3) n (%)
TEAE Respiratory, thoracic, and mediastinal disorders (SOC), Grade ≥ 3 (45 mg, n = 3): 1 (33.3) n (%)
TEAE Skin and subcutaneous tissue disorders (SOC), All grades (45 mg, n = 3): 3 (100.0) n (%)
TEAE Skin and subcutaneous tissue disorders (SOC), Grade ≥ 3 (45 mg, n = 3): 0 n (%)
TEAE Stomatitis, All grades (45 mg, n = 3): 1 (33.3) n (%)
TEAE Stomatitis, Grade ≥ 3 (45 mg, n = 3): 1 (33.3) n (%)
TEAE Subcutaneous abscess, All grades (45 mg, n = 3): 0 n (%)
TEAE Subcutaneous abscess, Grade ≥ 3 (45 mg, n = 3): 0 n (%)
TEAE Tinnitus, All grades (45 mg, n = 3): 1 (33.3) n (%)
TEAE Tinnitus, Grade ≥ 3 (45 mg, n = 3): 0 n (%)
TEAE Urticaria, All grades (45 mg, n = 3): 1 (33.3) n (%)
TEAE Urticaria, Grade ≥ 3 (45 mg, n = 3): 0 n (%)
TEAE Vomiting, All grades (45 mg, n = 3): 0 n (%)
TEAE Vomiting, Grade ≥ 3 (45 mg, n = 3): 0 n (%)
TEAE WBC count decreased, All grades (45 mg, n = 3): 2 (66.7) n (%)
TEAE WBC count decreased, Grade ≥ 3 (45 mg, n = 3): 0 n (%)
Grade 3 irAEs (60 mg): 5 patients
TEAE ALT increased, All grades (60 mg, n = 6): 1 (16.7) n (%)
TEAE ALT increased, Grade ≥ 3 (60 mg, n = 6): 0 n (%)
TEAE AST increased, All grades (60 mg, n = 6): 3 (50.0) n (%)
TEAE AST increased, Grade ≥ 3 (60 mg, n = 6): 0 n (%)
TEAE Abdominal discomfort, All grades (60 mg, n = 6): 1 (16.7) n (%)
TEAE Abdominal discomfort, Grade ≥ 3 (60 mg, n = 6): 0 n (%)
TEAE Abdominal pain upper, All grades (60 mg, n = 6): 0 n (%)
TEAE Abdominal pain upper, Grade ≥ 3 (60 mg, n = 6): 0 n (%)
TEAE Amylase increased, All grades (60 mg, n = 6): 0 n (%)
TEAE Amylase increased, Grade ≥ 3 (60 mg, n = 6): 0 n (%)
TEAE Anemia, All grades (60 mg, n = 6): 0 n (%)
TEAE Anemia, Grade ≥ 3 (60 mg, n = 6): 0 n (%)
TEAE Arthralgia, All grades (60 mg, n = 6): 1 (16.7) n (%)
TEAE Arthralgia, Grade ≥ 3 (60 mg, n = 6): 0 n (%)
TEAE Back pain, All grades (60 mg, n = 6): 0 n (%)
TEAE Back pain, Grade ≥ 3 (60 mg, n = 6): 0 n (%)
TEAE Blepharitis, All grades (60 mg, n = 6): 1 (16.7) n (%)
TEAE Blepharitis, Grade ≥ 3 (60 mg, n = 6): 0 n (%)
TEAE Blood and lymphatic system disorders (SOC), All grades (60 mg, n = 6): 0 n (%)
TEAE Blood and lymphatic system disorders (SOC), Grade ≥ 3 (60 mg, n = 6): 0 n (%)
TEAE Blood creatinine increased, All grades (60 mg, n = 6): 1 (16.7) n (%)
TEAE Blood creatinine increased, Grade ≥ 3 (60 mg, n = 6): 0 n (%)
TEAE Bradycardia, All grades (60 mg, n = 6): 0 n (%)
TEAE Bradycardia, Grade ≥ 3 (60 mg, n = 6): 0 n (%)
TEAE CMV test positive, All grades (60 mg, n = 6): 2 (33.3) n (%)
TEAE CMV test positive, Grade ≥ 3 (60 mg, n = 6): 0 n (%)
TEAE Cardiac disorders (SOC), All grades (60 mg, n = 6): 0 n (%)
TEAE Cardiac disorders (SOC), Grade ≥ 3 (60 mg, n = 6): 0 n (%)
TEAE Conjunctivitis, All grades (60 mg, n = 6): 1 (16.7) n (%)
TEAE Conjunctivitis, Grade ≥ 3 (60 mg, n = 6): 0 n (%)
TEAE Constipation, All grades (60 mg, n = 6): 2 (33.3) n (%)
TEAE Constipation, Grade ≥ 3 (60 mg, n = 6): 0 n (%)
TEAE Cough, All grades (60 mg, n = 6): 1 (16.7) n (%)
TEAE Cough, Grade ≥ 3 (60 mg, n = 6): 0 n (%)
TEAE Decreased appetite, All grades (60 mg, n = 6): 0 n (%)
TEAE Decreased appetite, Grade ≥ 3 (60 mg, n = 6): 0 n (%)
TEAE Diarrhea, All grades (60 mg, n = 6): 2 (33.3) n (%)
TEAE Diarrhea, Grade ≥ 3 (60 mg, n = 6): 2 (33.3) n (%)
TEAE Drug hypersensitivity, All grades (60 mg, n = 6): 1 (16.7) n (%)
TEAE Drug hypersensitivity, Grade ≥ 3 (60 mg, n = 6): 0 n (%)
TEAE Drug-induced liver injury, All grades (60 mg, n = 6): 1 (16.7) n (%)
TEAE Drug-induced liver injury, Grade ≥ 3 (60 mg, n = 6): 1 (16.7) n (%)
TEAE Dry eye, All grades (60 mg, n = 6): 0 n (%)
TEAE Dry eye, Grade ≥ 3 (60 mg, n = 6): 0 n (%)
TEAE Dry skin, All grades (60 mg, n = 6): 1 (16.7) n (%)
TEAE Dry skin, Grade ≥ 3 (60 mg, n = 6): 0 n (%)
TEAE Dysgeusia, All grades (60 mg, n = 6): 0 n (%)
TEAE Dysgeusia, Grade ≥ 3 (60 mg, n = 6): 0 n (%)
TEAE Dyspnea, All grades (60 mg, n = 6): 0 n (%)
TEAE Dyspnea, Grade ≥ 3 (60 mg, n = 6): 0 n (%)
TEAE Ear and labyrinth disorders (SOC), All grades (60 mg, n = 6): 0 n (%)
TEAE Ear and labyrinth disorders (SOC), Grade ≥ 3 (60 mg, n = 6): 0 n (%)
TEAE Eczema, All grades (60 mg, n = 6): 1 (16.7) n (%)
TEAE Eczema, Grade ≥ 3 (60 mg, n = 6): 0 n (%)
TEAE Eosinophil count increased, All grades (60 mg, n = 6): 0 n (%)
TEAE Eosinophil count increased, Grade ≥ 3 (60 mg, n = 6): 0 n (%)
TEAE Erythema multiforme, All grades (60 mg, n = 6): 1 (16.7) n (%)
TEAE Erythema multiforme, Grade ≥ 3 (60 mg, n = 6): 0 n (%)
TEAE Eye disorders (SOC), All grades (60 mg, n = 6): 1 (16.7) n (%)
TEAE Eye disorders (SOC), Grade ≥ 3 (60 mg, n = 6): 0 n (%)
TEAE Flank pain, All grades (60 mg, n = 6): 1 (16.7) n (%)
TEAE Flank pain, Grade ≥ 3 (60 mg, n = 6): 0 n (%)
TEAE GGT increased, All grades (60 mg, n = 6): 1 (16.7) n (%)
TEAE GGT increased, Grade ≥ 3 (60 mg, n = 6): 1 (16.7) n (%)
TEAE Gastrointestinal disorders (SOC), All grades (60 mg, n = 6): 4 (66.7) n (%)
TEAE Gastrointestinal disorders (SOC), Grade ≥ 3 (60 mg, n = 6): 2 (33.3) n (%)
TEAE General disorders and administration site conditions (SOC), All grades (60 mg, n = 6): 0 n (%)
TEAE General disorders and administration site conditions (SOC), Grade ≥ 3 (60 mg, n = 6): 0 n (%)
TEAE Hepatic function abnormal, All grades (60 mg, n = 6): 1 (16.7) n (%)
TEAE Hepatic function abnormal, Grade ≥ 3 (60 mg, n = 6): 1 (16.7) n (%)
TEAE Hepatobiliary disorders (SOC), All grades (60 mg, n = 6): 2 (33.3) n (%)
TEAE Hepatobiliary disorders (SOC), Grade ≥ 3 (60 mg, n = 6): 2 (33.3) n (%)
TEAE Herpes simplex, All grades (60 mg, n = 6): 0 n (%)
TEAE Herpes simplex, Grade ≥ 3 (60 mg, n = 6): 0 n (%)
TEAE Herpes zoster, All grades (60 mg, n = 6): 1 (16.7) n (%)
TEAE Herpes zoster, Grade ≥ 3 (60 mg, n = 6): 0 n (%)
TEAE Hypoesthesia, All grades (60 mg, n = 6): 0 n (%)
TEAE Hypoesthesia, Grade ≥ 3 (60 mg, n = 6): 0 n (%)
TEAE Hypogammaglobulinemia, All grades (60 mg, n = 6): 0 n (%)
TEAE Hypogammaglobulinemia, Grade ≥ 3 (60 mg, n = 6): 0 n (%)
TEAE Immune system disorders (SOC), All grades (60 mg, n = 6): 1 (16.7) n (%)
TEAE Immune system disorders (SOC), Grade ≥ 3 (60 mg, n = 6): 0 n (%)
